Source: patent US11161837B2, “Benzofuran derivatives for the treatment of hepatitis C” (BRISTOL-MYERS SQUIBB COMPANY, priority 2016, dated 2021)

Experiments:
[1] = molecular target: T1, NS5B proteins of HCV genotype 1b (Con1) (Hepatitis C virus genotype 1b, UniProt Q9WMX2); assay: HCV NS5B RdRp enzyme assay; type: biochemical; conditions: 1b enzyme
T1 construct: Each untagged protein was expressed with an 18 amino acid C-terminal truncation to enhance the solubility; made in house; host or cells: E. coli BL21(DE3), pET21a
Protocol: HCVNS5B RdRp Cloning, Expression, and Purification.
The cDNA encoding NS5B proteins of HCV genotype 1b (Con1), a genotype 1b variant with amino acid 316 mutated from cysteine to asparagine, and genotype 2a (JFH-1), were cloned into the pET21a expression vector. Each untagged protein was expressed with an 18 amino acid C-terminal truncation to enhance the solubility. The E. coli competent cell line BL21(DE3) was used for expression of the protein. Cultures were grown at 37° C. for ˜4 hours until the cultures reached an optical density of 2.0 at 600 nm. The cultures were cooled to 20° C. and induced with 1 mM IPTG. Fresh ampicillin was added to a final concentration of 50 μg/mL and the cells were grown overnight at 20° C.
Cell pellets (3 L) were lysed for purification to yield 15-24 mgs of purified NS5B. The lysis buffer consisted of 20 mM Tris-HCl, pH 7.4, 500 mM NaCl, 0.5% triton X-100, 1 mM DTT, 1 mM EDTA, 20% glycerol, 0.5 mg/mL lysozyme, 10 mM MgCl2, 15 ug/mL deoxyribonuclease I, and Complete TM protease inhibitor tablets (Roche). After addition of the lysis buffer, frozen cell pellets were resuspended using a tissue homogenizer. To reduce the viscosity of the sample, aliquots of the lysate were sonicated on ice using a microtip attached to a Branson sonicator. The sonicated lysate was centrifuged at 100,000×g for 30 minutes at 4° C. and filtered through a 0.2 μm filter unit (Corning).
The protein was purified using two sequential chromatography steps: Heparin sepharose CL-6B and polyU sepharose 4B. The chromatography buffers were identical to the lysis buffer but contained no lysozyme, deoxyribonuclease I, MgCl2 or protease inhibitor and the NaCl concentration of the buffer was adjusted according to the requirements for charging the protein onto the column. Each column was eluted with a NaCl gradient which varied in length from 5-50 column volumes depending on the column type. After the final chromatography step, the resulting purity of the enzyme is >90% based on SDS-PAGE analysis. The enzyme was aliquoted and stored at −80° C.
HCVNS5B RdRp Enzyme Assay.
An on-bead solid phase homogeneous assay was used in a 384-well format to assess NS5B inhibitors (WangY-K, Rigat K, Roberts S, and Gao M (2006) Anal Biochem, 359: 106-111). The biotinylated oligo dT12 primer was captured on streptavidin-coupled imaging beads (GE, RPNQ0261) by mixing primer and beads in 1× buffer and incubating at room temperature for three hours. Unbound primer was removed after centrifugation. The primer-bound beads were resuspended in 3× reaction mix (20 mM Hepes buffer, pH 7.5, dT primer coupled beads, poly A template, ^3H-UTP, and RNAse inhibitor (Promega N2515)). Compounds were serially diluted 1:3 in DMSO and aliquoted into assay plates. Equal volumes (10 μL) of water, 3× reaction mix, and enzyme in 3× assay buffer (60 mM Hepes buffer, pH 7.5, 7.5 mM MgCl2, 7.5 mM KCl, 3 mM DTT, 0.03 mg/mL BSA, 6% glycerol) were added to the diluted compound on the assay plate. Final concentration of components in 384-well assay: 0.36 nM template, 15 nM primer, 0.29 μM ^3H-UTP (0.3 μCi), 1.6 U/μL RNAse inhibitor, 7 nM NS5B enzyme, 0.01 mg/mL BSA, 1 mM DTT, and 0.33 μg/μL beads, 20 mM Hepes buffer, pH 7.5, 2.5 mM MgCl2, 2.5 mM KCl, and 0.1% DMSO.
Reactions were allowed to proceed from 4 to 24 hours at 30° C. For 24 hour reactions, enzyme and inhibitors were pre-incubated for 24 hours before adding template and primer. Reactions were terminated by the addition of 50 mM EDTA (10 μL). After incubating for at least 15 minutes, plates were read on an Amersham LEADseeker multimodality imaging system.
IC50 values for compounds were determined using ten different [I]. IC50 values were calculated from the inhibition using the four-parameter logistic formula y=A+((B−A)/(1+((C/x)^D))), where A and B denote minimal and maximal % inhibition, respectively, C is the IC50, D is hill slope and x represents compound concentration.

[2] = test system: genotype 1b (Con-1) HCV replicon in Huh-7 cells; assay: HCV replicon luciferase assay; type: cell-based; conditions: 1b replicon, Huh-7, Renilla luciferase, 3 days incubation
Protocol: The cell lines used to evaluate compounds consist of a human hepatocyte derived cell line (Huh-7) that constitutively expresses a genotype 1b (Con-1) HCV replicon or a genotype 1b (Con-1) HCV replicon with an asparagine replacing the cysteine at amino acid 316, or a genotype 2a (JFH-1) replicon, containing a Renilla luciferase reporter gene. These cells were maintained in Dulbecco's modified Eagle medium (DMEM) containing 10% FBS, 100 U/mL penicillin/streptomycin and 1.0 mg/mL G418.
HCV Replicon Luciferase Assay.
To evaluate compound efficacy, titrated compounds were transferred to sterile 384-well tissue culture treated plates, and the plates were seeded with HCV replicon cells (50 μL at a density of 2.4×10^3 cells/well) in DMEM containing 4% FBS (final DMSO concentration at 0.5%). After 3 days incubation at 37° C., cells were analyzed for Renilla Luciferase activity using the EnduRen substrate (Promega cat # E6485) according to the manufacturer's directions. Briefly, the EnduRen substrate was diluted in DMEM and then added to the plates to a final concentration of 7.5 μM. The plates were incubated for at least 1 h at 37° C. then read on a Viewlux Imager (PerkinElmer) using a luminescence program. The 50% effective concentration (EC50) was calculated using the four-parameter logistic formula noted above.

T1 sequence (Q9WMX2 2420-2992): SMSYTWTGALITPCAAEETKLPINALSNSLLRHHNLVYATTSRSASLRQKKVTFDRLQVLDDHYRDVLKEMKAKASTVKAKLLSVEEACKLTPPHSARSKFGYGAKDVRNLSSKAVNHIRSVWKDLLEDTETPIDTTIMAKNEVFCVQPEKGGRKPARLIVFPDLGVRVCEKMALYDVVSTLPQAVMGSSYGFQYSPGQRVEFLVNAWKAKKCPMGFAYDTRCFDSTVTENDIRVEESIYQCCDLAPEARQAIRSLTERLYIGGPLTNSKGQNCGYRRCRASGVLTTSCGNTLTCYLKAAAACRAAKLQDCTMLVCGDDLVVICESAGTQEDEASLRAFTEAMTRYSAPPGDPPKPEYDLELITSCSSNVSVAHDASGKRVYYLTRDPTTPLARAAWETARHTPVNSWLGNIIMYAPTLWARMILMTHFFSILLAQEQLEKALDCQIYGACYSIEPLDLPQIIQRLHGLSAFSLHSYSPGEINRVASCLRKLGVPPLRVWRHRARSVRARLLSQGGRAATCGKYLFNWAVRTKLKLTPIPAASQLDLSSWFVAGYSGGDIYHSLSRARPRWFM

Row | Structure (SMILES) | IC50 [1] [nM] | EC50 [2] [nM] | EC50 ([2]; Hepatitis C virus, Huh-7, 72 h) [nM]
1 | CNC(=O)c1c(-c2ccc(F)cc2)oc2ccc(-c3cc(C(=O)NC4(c5ncccn5)CC(OC)C4)cc(F)c3C)c(F)c12 (single isomer, unassigned) [Example 11a, 4-Fluoro-5-(3-fluoro-5-((3-methoxy-1-(pyrimidin-2-yl)cyclobutyl)carbamoyl)-2-methylphenyl)-2-(4-fluorophenyl)-N-methylbenzofuran-3-carboxamide] | 90 | 40 | –
2 | CNC(=O)c1c(-c2ccc(F)cc2)oc2ccc(-c3cc(C(=O)NC4(c5ncccn5)CC(OC)C4)cc(F)c3C)c(F)c12 (single isomer, unassigned) [Example 11b, 4-Fluoro-5-(3-fluoro-5-((3-methoxy-1-(pyrimidin-2-yl)cyclobutyl)carbamoyl)-2-methylphenyl)-2-(4-fluorophenyl)-N-methylbenzofuran-3-carboxamide] | 30 | 4.56 | –
3 | CNC(=O)c1c(-c2ccc(F)cc2)oc2ccc(-c3cc(C(=O)NC4(c5ncccn5)CC(O)C4)c(OC)cc3C)c(F)c12 (single isomer, unassigned) [Example 12a, 4-Fluoro-2-(4-fluorophenyl)-5-(5-((3-hydroxy-1-(pyrimidin-2-yl)cyclobutyl)carbamoyl)-4-methoxy-2-methylphenyl)-N-methylbenzofuran-3-carboxamide] | 760 | 430 | –
4 | CNC(=O)c1c(-c2ccc(F)cc2)oc2ccc(-c3cc(C(=O)NC4(c5ncccn5)CC(O)C4)c(OC)cc3C)c(F)c12 (single isomer, unassigned) [Example 12b, 4-Fluoro-2-(4-fluorophenyl)-5-(5-((3-hydroxy-1-(pyrimidin-2-yl)cyclobutyl)carbamoyl)-4-methoxy-2-methylphenyl)-N-methylbenzofuran-3-carboxamide] | 210 | 140 | –
5 | CNC(=O)c1c(-c2ccc(F)cc2)oc2ccc(-c3cc(C(=O)NC4(c5ncccn5)CC(OC)C4)c(OC)cc3C)c(F)c12 (single isomer, unassigned) [Example 13a, 4-Fluoro-2-(4-fluorophenyl)-5-(4-methoxy-5-((3-methoxy-1-(pyrimidin-2-yl)cyclobutyl)carbamoyl)-2-methylphenyl)-N-methylbenzofuran-3-carboxamide] | 30 | 30 | –
6 | CNC(=O)c1c(-c2ccc(F)cc2)oc2ccc(-c3cc(C(=O)NC4(c5ncccn5)CC(OC)C4)c(OC)cc3C)c(F)c12 (single isomer, unassigned) [Example 13b, 4-Fluoro-2-(4-fluorophenyl)-5-(4-methoxy-5-((3-methoxy-1-(pyrimidin-2-yl)cyclobutyl)carbamoyl)-2-methylphenyl)-N-methylbenzofuran-3-carboxamide] | 20 | 6.44 | –
7 | CNC(=O)c1c(-c2ccc(F)cc2)oc2cc(CCC(F)(F)F)c(-c3cccc(C(=O)NC4(c5ncccn5)CC(OC(F)F)C4)c3)cc12 (single isomer, unassigned) [Example 29a] | 6.14 | 4.07 | –
8 | CNC(=O)c1c(-c2ccc(F)cc2)oc2cc(CCC(F)(F)F)c(-c3cccc(C(=O)NC4(c5ncccn5)CC(OC(F)(F)F)C4)c3)cc12 (single isomer, unassigned) [Example 45a, 2-(4-Fluorophenyl)-N-methyl-5-(3-((1-(pyrimidin-2-yl)-3-(trifluoromethoxy)cyclobutyl)carbamoyl)phenyl)-6-(3,3,3-trifluoropropyl)benzofuran-3-carboxamide] | 20 | 20 | –
9 | CNC(=O)c1c(-c2ccc(F)cc2)oc2cc(CCC(F)(F)F)c(-c3cccc(C(=O)NC4(c5ncccn5)CC(OC(F)(F)F)C4)c3)cc12 (single isomer, unassigned) [Example 45b, 2-(4-Fluorophenyl)-N-methyl-5-(3-((1-(pyrimidin-2-yl)-3-(trifluoromethoxy)cyclobutyl)carbamoyl)phenyl)-6-(3,3,3-trifluoropropyl)benzofuran-3-carboxamide] | 10 | 9.46 | –
10 | CNC(=O)c1c(-c2ccc(F)cc2)oc2cc(CCC(F)(F)F)c(-c3ccc(OC)c(C(=O)NC4(c5ncccn5)CC(OC(F)(F)F)C4)c3)cc12 (single isomer, unassigned) [Example 47a, 2-(4-Fluorophenyl)-5-(4-methoxy-3-((1-(pyrimidin-2-yl)-3-(trifluoromethoxy)cyclobutyl)carbamoyl)phenyl)-N-methyl-6-(3,3,3-trifluoropropyl)benzofuran-3-carboxamide] | 20 | – | 10
11 | CNC(=O)c1c(-c2ccc(F)cc2)oc2cc(CCC(F)(F)F)c(-c3ccc(OC)c(C(=O)NC4(c5ncccn5)CC(OC(F)(F)F)C4)c3)cc12 (single isomer, unassigned) [Example 47b, 2-(4-Fluorophenyl)-5-(4-methoxy-3-((1-(pyrimidin-2-yl)-3-(trifluoromethoxy)cyclobutyl)carbamoyl)phenyl)-N-methyl-6-(3,3,3-trifluoropropyl)benzofuran-3-carboxamide] | 10 | 10 | –
12 | CCCc1cc2oc(-c3ccc(F)cc3)c(C(=O)NC)c2cc1-c1ccc(F)c(C(=O)NC2(c3ncccn3)CC(OC(F)(F)F)C2)c1 (single isomer, unassigned) [Example 48b, 5-(4-Fluoro-3-((1-(pyrimidin-2-yl)-3-(trifluoromethoxy)cyclobutyl)carbamoyl)phenyl)-2-(4-fluorophenyl)-N-methyl-6-propylbenzofuran-3-carboxamide] | 8.27 | 10 | –
13 | CNC(=O)c1c(-c2ccc(F)cc2)oc2cc(CCC(F)(F)F)c(-c3ccc(F)c(C(=O)NC4(c5ncccn5)CC(OC(F)(F)F)C4)c3)cc12 (single isomer, unassigned) [Example 49b, 5-(4-Fluoro-3-((1-(pyrimidin-2-yl)-3-(trifluoromethoxy)cyclobutyl)carbamoyl)phenyl)-2-(4-fluorophenyl)-N-methyl-6-(3,3,3-trifluoropropyl)benzofuran-3-carboxamide] | 10 | 20 | –
